Experimental data: patent publication US8344008B2 (Janssen Pharmaceutica NV, priority 2007, dated 2013)

Biological target: T1, recombinant human LTA4 hydrolase (rhLTA4H) (Homo sapiens, UniProt P09960)
T1 construct: made in house; host or cells: Spodoptera frugiperda (Sf-9) cells, baculovirus (pFastBac1)
T1 sequence (P09960 1-611): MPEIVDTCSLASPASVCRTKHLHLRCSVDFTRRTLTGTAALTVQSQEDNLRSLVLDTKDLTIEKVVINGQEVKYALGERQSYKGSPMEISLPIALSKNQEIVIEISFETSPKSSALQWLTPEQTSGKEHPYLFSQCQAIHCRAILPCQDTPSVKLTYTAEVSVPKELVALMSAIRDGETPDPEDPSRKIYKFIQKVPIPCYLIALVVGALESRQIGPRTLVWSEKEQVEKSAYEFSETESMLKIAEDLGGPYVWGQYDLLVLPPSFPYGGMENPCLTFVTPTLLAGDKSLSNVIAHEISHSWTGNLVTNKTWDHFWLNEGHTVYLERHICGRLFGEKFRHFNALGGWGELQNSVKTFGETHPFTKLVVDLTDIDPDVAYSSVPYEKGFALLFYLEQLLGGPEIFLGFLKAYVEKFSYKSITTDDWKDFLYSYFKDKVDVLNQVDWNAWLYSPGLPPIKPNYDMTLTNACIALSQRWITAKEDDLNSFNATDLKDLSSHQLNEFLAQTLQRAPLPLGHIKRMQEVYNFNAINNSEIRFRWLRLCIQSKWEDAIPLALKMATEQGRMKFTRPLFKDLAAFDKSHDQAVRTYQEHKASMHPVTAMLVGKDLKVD
Test: Recombinant Human LTA4 Hydrolase Assay for LTA4 Hydrolase Inhibitor Activity
Type: biochemical
Conditions: average of results obtained; LTB4 quantified by enzyme-linked immunoassay
Protocol: Biological Methods: Recombinant Human LTA4 Hydrolase Assay for LTA4 Hydrolase Inhibitor Activity
Compounds of the present invention were tested for LTA4 hydrolase inhibitor activity against recombinant human LTA4 hydrolase (rhLTA4H). Vectors were prepared and used to express rhLTA4H essentially as follows: LTA4 hydrolase encoding DNA was amplified by polymerase chain reaction (PCR) using a human placental cDNA library as a template. Oligonucleotide primers for the PCR reaction were based on the 5′-end, and the complement of the 3′-end, of the published nucleotide sequence for the coding region of the human LTA4 hydrolase gene (C. D. Funk et al., Proc. Natl. Acad. Sci. USA 1987, 84:6677-6681). The amplified 1.9 kb DNA fragment encoding LTA4 hydrolase was isolated and cloned into the pFastBac1 vector (Invitrogen). Recombinant baculovirus was generated as described by the manufacturer, and used to infect Spodoptera frugiperda (Sf-9) cells. Recombinant LTA4 hydrolase enzyme was purified from the infected Sf-9 cells essentially as described by J. K. Gierse et al. (Protein Expression and Purification 1993, 4:358-366). The purified enzyme solution was adjusted to contain 0.29 mg/mL LTA4 hydrolase, 50 mM Tris (pH 8.0), 150 mM NaCl, 5 mM dithiothreitol, 50% glycerol, and EDTA-free Complete protease inhibitor cocktail (Roche). The specific activity of the enzyme was about 3.8 μmol/min/mg.
LTA4 substrate was prepared from the methyl ester of LTA4 (Cayman Chemical) by treatment with 67 equiv of NaOH under nitrogen at rt for 40 min. The LTA4 substrate in its free acid form was kept frozen at −80° C. until needed. Each compound was diluted to different concentrations in assay buffer (0.1 M potassium phosphate (pH 7.4), 5 mg/mL fatty acid free BSA) containing 10% DMSO. A 25-uL aliquot of each compound dilution was incubated for 10 min at rt with an equal volume of assay buffer containing 36 ng of recombinant human LTA4H. The solution was then adjusted to 200 μL with assay buffer. LTA4 (free acid) was thawed and diluted in assay buffer to a concentration of 357 ng/mL, and 25 μL (9 ng) of LTA4 substrate was added to the reaction mixture (total volume=225 μL) at time zero. Each reaction was carried out at rt for 10 min. The reaction was stopped by diluting 10 μL of the reaction mixture with 200 μL of assay buffer. LTB4 was quantified in the diluted sample by a commercially available enzyme-linked immunoassay (Cayman Chemical Co.), as recommended by the manufacturer. Positive controls, under essentially identical conditions but without addition of an inhibitor compound, and negative controls, containing all assay components except enzyme, were routinely run in each experiment. […]
Results for the compounds tested in this assay are presented in Table 1 as an average of results obtained.

Row | Ki [nM] | Structure (SMILES)
1 | 631 | O=S(=O)(c1ccco1)N1CC2CN(Cc3ccc(Oc4nc5ccccc5s4)cc3)CC2C1 (stereo not drawn) [Example 121, 2-{4-[5-(Furan-2-sulfonyl)-hexahydro-pyrrolo[3,4-c]pyrrol-2-ylmethyl]-phenoxy}-benzothiazole]
2 | 21 | CS(=O)(=O)N1CCC2CN(Cc3ccc(Oc4nc5ccccc5s4)cc3)CC2C1 (stereo not drawn) [Example 130, 2-[4-(5-Methanesulfonyl-octahydro-pyrrolo[3,4-c]pyridin-2-ylmethyl)-phenoxy]-benzothiazole]
3 | 3 | NC(=O)N1C[C@@H]2C[C@H]1CN2Cc1ccc(Oc2nc3ccccc3s2)cc1 [Example 32, (S,S)-5-[4-(Benzothiazol-2-yloxy)-benzyl]-2,5-diaza-bicyclo[2.2.1]heptane-2-carboxylic acid amide]
4 | 36 | CC(=O)N1CCC2CN(Cc3ccc(Oc4nc5ccccc5s4)cc3)CC21 (stereo not drawn) [Example 87, 1-{5-[4-(Benzothiazol-2-yloxy)-benzyl]-hexahydro-pyrrolo[3,4-b]pyrrol-1-yl}-ethanone]
5 | 79 | CC(=O)N1CC2CN(Cc3ccc(Cc4nc5ccccc5s4)cc3)CC2C1 (stereo not drawn) [Example 149, 1-[5-(4-Benzothiazol-2-ylmethyl-benzyl)-hexahydro-pyrrolo[3,4-c]pyrrol-2-yl]-ethanone]
6 | 72 | CC(=O)N1C[C@@H]2C[C@H]1CN2Cc1ccc(Oc2nc3ccc(C)cc3s2)cc1 [Example 270, (S,S)-1-{5-[4-(6-Methyl-benzothiazol-2-yloxy)-benzyl]-2,5-diaza-bicyclo[2.2.1]hept-2-yl}-ethanone]
7 | 57 | COC(=O)CN1CC2CN(Cc3ccc(Oc4nc5ccccc5s4)cc3)CC2C1 (stereo not drawn) [Example 157, {5-[4-(Benzothiazol-2-yloxy)-benzyl]-hexahydro-pyrrolo[3,4-c]pyrrol-2-yl}-acetic acid methyl ester]
8 | 32 | CS(=O)(=O)N1C[C@H]2C[C@@H]1CN2Cc1ccc(Oc2nc3ccccc3s2)cc1 [Example 46, (R,R)-2-[4-(5-Methanesulfonyl-2,5-diaza-bicyclo[2.2.1]hept-2-ylmethyl)-phenoxy]-benzothiazole]
9 | 3 | CC(=O)N1C[C@@H]2C[C@H]1CN2CCOc1ccc(Oc2nc3ccccc3s2)cc1 [Example 9, (S,S)-1-(5-{2-[4-(Benzothiazol-2-yloxy)-phenoxy]-ethyl}-2,5-diaza-bicyclo[2.2.1]hept-2-yl)-ethanone]
10 | 2040 | CS(=O)(=O)N1CC2CCC(C1)N2CCc1ccc(Oc2nc3c(Cl)cccc3s2)cc1 [Example 281, meso-4-Chloro-2-{4-[2-(3-methanesulfonyl-3,8-diaza-bicyclo[3.2.1]oct-8-yl)-ethyl]-phenoxy}-benzothiazole]
11 | 6 | CC(=O)N1C[C@@H]2C[C@H]1CN2Cc1ccc(Oc2nc3ccccc3s2)cc1 [Example 1, (S,S)-1-{5-[4-(Benzothiazol-2-yloxy)-benzyl]-2,5-diaza-bicyclo[2.2.1]hept-2-yl}-ethanone]
12 | 383 | CC(=O)N1C[C@H]2C[C@@H]1CN2Cc1ccc(Oc2nc3cc(F)ccc3s2)cc1 [Example 183, (R,R)-1-{5-[4-(5-Fluoro-benzothiazol-2-yloxy)-benzyl]-2,5-diaza-bicyclo[2.2.1]hept-2-yl}-ethanone]
13 | 442 | COCC(=O)N1C[C@@H]2C[C@H]1CN2CCc1cccc(Oc2nc3ccccc3s2)c1 [Example 43]
14 | 229 | CC(=O)N1CC2CN(CCc3ccc(Oc4nc5ccc(C)cc5s4)cc3)CC2C1 (stereo not drawn) [Example 148, 1-(5-{2-[4-(6-Methyl-benzothiazol-2-yloxy)-phenyl]-ethyl}-hexahydro-pyrrolo[3,4-c]pyrrol-2-yl)-ethanone]
15 | 11 | O=C(N1C[C@@H]2C[C@H]1CN2CCc1ccc(Oc2nc3ccccc3s2)cc1)C1(O)CC1 [Example 16]
16 | 16 | CC(C)(C)OC(=O)NCC(=O)N1C[C@@H]2C[C@H]1CN2CCOc1ccc(Oc2nc3ccccc3s2)cc1 [Example 30, (S,S)-[2-(5-{2-[4-(Benzothiazol-2-yloxy)-phenoxy]-ethyl}-2,5-diaza-bicyclo[2.2.1]hept-2-yl)-2-oxo-ethyl]-carbamic acid tert-butyl ester]

The next lines start with the molecule.

Row | Structure (SMILES) | Ki [nM]
17 | NC(=O)N1C[C@H]2C[C@@H]1CN2CCOc1ccc(Oc2nc3cc(Cl)ccc3s2)cc1 [Example 176, (R,R)-5-{2-[4-(5-Chloro-benzothiazol-2-yloxy)-phenoxy]-ethyl}-2,5-diaza-bicyclo[2.2.1]heptane-2-carboxylic acid amide] | 431
18 | CS(=O)(=O)N1C[C@H]2C[C@@H]1CN2CCc1ccc(Oc2nc3c(F)cccc3s2)cc1 [Example 241, (R,R)-4-Fluoro-2-{4-[2-(5-methanesulfonyl-2,5-diaza-bicyclo[2.2.1]hept-2-yl)-ethyl]-phenoxy}-benzothiazole] | 281
19 | CS(=O)(=O)N[C@H]1C[C@H]2CC[C@@H](C1)N2Cc1ccc(Oc2nc3cc(F)ccc3s2)cc1 [Example 208, meso-endo-N-{8-[4-(5-Fluoro-benzothiazol-2-yloxy)-benzyl]-8-aza-bicyclo[3.2.1]oct-3-yl}-methanesulfonamide] | 22
20 | NC(=O)N[C@@H]1C[C@H]2CC[C@@H](C1)N2CCc1ccc(Oc2nc3cc(Cl)ccc3s2)cc1 [Example 202, meso-exo-(8-{2-[4-(5-Chloro-benzothiazol-2-yloxy)-phenyl]-ethyl}-8-aza-bicyclo[3.2.1]oct-3-yl)-urea] | 127
21 | NC(=O)N1[C@@H]2CC[C@H]1C[C@H](NCCc1ccc(Oc3nc4c(F)cccc4s3)cc1)C2 [Example 212, meso-exo-3-{2-[4-(4-Fluoro-benzothiazol-2-yloxy)-phenyl]-ethylamino}-8-aza-bicyclo[3.2.1]octane-8-carboxylic acid amide] | 248
22 | NC(=O)N[C@@H]1C[C@H]2CC[C@@H](C1)N2CCOc1ccc(Oc2nc3ccc(Cl)cc3s2)cc1 [Example 234, meso-exo-(8-{2-[4-(6-Chloro-benzothiazol-2-yloxy)-phenoxy]-ethyl}-8-aza-bicyclo[3.2.1]oct-3-yl)-urea] | 72
23 | NC(=O)N1[C@@H]2CC[C@H]1C[C@@H](NCc1ccc(Oc3nc4cccc(F)c4s3)cc1)C2 [Example 226, meso-endo-3-[4-(7-Fluoro-benzothiazol-2-yloxy)-benzylamino]-8-aza-bicyclo[3.2.1]octane-8-carboxylic acid amide] | 90
24 | CC(=O)N1C[C@H]2C[C@@H]1CN2CCOc1ccc(Oc2nc3cccc(F)c3s2)cc1 [Example 218, (R,R)-1-(5-{2-[4-(7-Fluoro-benzothiazol-2-yloxy)-phenoxy]-ethyl}-2,5-diaza-bicyclo[2.2.1]hept-2-yl)-ethanone] | 20
25 | CC(=O)N1[C@@H]2CC[C@H]1C[C@H](NCCc1ccc(Oc3nc4ccc(F)cc4s3)cc1)C2 [Example 209, meso-exo-1-(3-{2-[4-(6-Fluoro-benzothiazol-2-yloxy)-phenyl]-ethylamino}-8-aza-bicyclo[3.2.1]oct-8-yl)-ethanone] | 69
26 | NC(=O)N[C@H]1C[C@H]2CC[C@@H](C1)N2Cc1ccc(Oc2nc3cc(Cl)ccc3s2)cc1 [Example 259, meso-endo-{8-[4-(5-Chloro-benzothiazol-2-yloxy)-benzyl]-8-aza-bicyclo[3.2.1]oct-3-yl}-urea] | 58
27 | CC(=O)N1[C@@H]2CC[C@H]1C[C@H](NCCOc1ccc(Oc3nc4ccc(Cl)cc4s3)cc1)C2 [Example 178, meso-exo-1-(3-{2-[4-(6-Chloro-benzothiazol-2-yloxy)-phenoxy]-ethylamino}-8-aza-bicyclo[3.2.1]oct-8-yl)-ethanone] | 900
